Assay results reported in paper PMC6956045 (Pharmaceutics, 2019).
In brackets after ≈: the same amount, converted by molar mass.

Legend:
[1] = Bulk phase partition coefficient n-octanol/phosphate buffer; format: physicochemical; settings: pH 6.8, read-out: n-Octanol partition coefficient P (converted)
Protocol: The partition coefficient was calculated as the ratio between octanol concentration and the aqueous concentration. Three replicates were done to determine the average value.
Partition coefficients can be used as an index to provisionally classify compounds in terms of permeability.

[2] = cited from earlier work
[3] = Solubility assay: saturation shake-flask method; format: physicochemical; settings: for solubility at 8 h: thermodynamic from solid, 37 °C, shake-flask
Protocol: The solubility assays were performed according to the World Health Organization (WHO) guidelines protocols. […] A sample concentration was determined using high-performance liquid chromatography (HPLC) with ultraviolet (UV) detection.

[4] = cited from earlier work; remark: listed apart in the source
Caco-2 cell monolayers = experiment: Permeability assay: Caco-2 transport studies; format: in vitro ADME
Protocol: Caco-2 cells were grown in a polycarbonate membrane. To reach the confluence, 250,000 cells/cm^2 were seeded in six Transwell plates and […] for 19–22 days with Dubelcco’s Modified Eagle’s Media, with 1% L-glutamine, 10% fetal bovine serum, and 1% penicillin/streptomycin, at 37 °C temperature, 90% relative humidity, and 5% CO2.
The confluence of the cells was tested by measuring the transepithelial electrical resistance (TEER). Permeability studies were conducted with an orbital shaking (50 rpm) and with pH 7.0 in both chambers. Standard protocols were described and validated previously in our laboratory. Four samples of 200 µL were taken and replaced with a fresh buffer from the receiver side at 15, 30, 45, and 90 min.
Permeability studies were performed in both directions: apical-to-basal (A-to-B) and basal-to-apical (B-to-A).
The apparent permeability coefficient was calculated according the following equation:(1) Creceiver,t=Qtotal/Vreceiver+Vdonor+((Creceiver,t−1·f)−Qtotal/Vreceiver+Vdonor)·e^−Peff 0,1·S·(1/Vreceiver+1/Vdonor)·Δt where Creceiver,t is the drug concentration in the receiver chamber at time t, Qtotal is the total amount of drug in both chambers, Vreceiver and Vdonor are the volumes of each chamber, Creceiver,t−1 is the drug concentration in the receiver chamber at the previous time, f is the sample replacement dilution factor, S is the surface area of the monolayer, Δt is the time interval, and Peff is the permeability coefficient as was described by Mangas-Sanjuan et al..
Experiments in the presence of the formulation excipients were done by dissolving a formulation tablet in 250 mL of buffer and filtrating the obtained dispersion to eliminate nonsoluble excipients.

| logD [1] | Solubility classification [3] | solubility at 8 h ([3]; buffer solution pH 1.2, aqueous buffer, pH 1.2 buffer) | solubility at 8 h ([3]; buffer solution pH 4.5, aqueous buffer, pH 4.5 buffer) | solubility at 8 h ([3]; buffer solution pH 6.8, aqueous buffer, pH 6.8 buffer) | Volume in which the highest strength/dose (40 mg) would be soluble ([3]; pH 1.2) | Permeability compared with metoprolol (Caco-2 cell monolayers; Caco-2, pH 7.0 both chambers, drug in solution) | Permeability in the presence of sodium azide (Caco-2 cell monolayers; Caco-2, passive diffusion permeability, transporter contribution nullified) | SMILES | log P [2] | pKa [2] | First-pass hepatic effect (of the absorbed drug) [4] | Intestinal absorption (of dose administered) [4] | Concentration dependence of permeability (Caco-2 cell monolayers; Caco-2, 50-1000 μM) | Solubility in chloroform [2] | Solubility in water, methanol and acetonitrile [2] |
| --- | --- | --- | --- | --- | --- | --- | --- | --- | --- | --- | --- | --- | --- | --- | --- |
| -0.638 | – | – | – | – | – | – | – | COCCc1ccc(OCC(O)CNC(C)C)cc1 (stereo not shown) [Metoprolol] | – | – | – | – | – | – | – |
| -0.155 | highly soluble | 440 ± 17.4 mg/mL (≈ 1040 mM) | 504 ± 24.2 mg/mL (≈ 1190 mM) | 480 ± 17.4 mg/mL (≈ 1130 mM) | 0.09 mL | lower than that of metoprolol | as high as metoprolol permeability | CC[C@H](C)C(=O)O[C@H]1C[C@H](O)C=C2C=C[C@H](C)[C@H](CC[C@@H](O)C[C@@H](O)CC(=O)O)[C@H]21 [Pravastatin] | 1.65 | 4.21 | 66% | 34% | permeability increased at higher concentrations | – | – |
| – | – | – | – | – | – | – | – | CC[C@H](C)C(=O)O[C@H]1C[C@H](O)C=C2C=C[C@H](C)[C@H](CC[C@@H](O)C[C@@H](O)CC(=O)O)[C@H]21 [Pravastatin sodium] | – | – | – | – | – | practically insoluble | easily soluble |
